This note sets out measurements from patent publication US20100272791A1, “COMPOSITION HAVING EFFECT ON TREATMENT AND PREVENTION OF DRY EYE SYNDROME” (MD BIOALPHA CO., LTD., priority 2005, published 2010).

One test concerns dry eye patients. Put plainly: Clinical test, oral uridine in dry eye patients (double blind, placebo). It is filed as in vivo, human. The note with it: oral uridine 100 mg/day, three times a day for 3 months, versus placebo. The method, then: At initial point of treatment and two weeks, one month, two months and three months after initiation of treatment, changes in corneal symptoms and conditions and the presence/absence of adverse side effects were objectively evaluated by slit-lamp microscopic examination, measurement of intraocular pressure, ophthalmoscopic examination, Schirmer test, impression cytology and analysis photography of anterior eye segment. In addition, subjective questionnaires of individual patients were prepared, and changes in subjective symptoms of patients and the presence/absence of adverse side effects were observed.

The next test has as its system dry eye-induced rabbits. Put plainly: Concanavalin A-induced dry eye in rabbits, eye drops, impression cytology. It is filed as in vivo, rabbit. The note with it: uridine eye drops in phosphate-buffered saline (1% and 5%), compared to 0.1% hyaluronic acid positive control and PBS control; FIG. 7. The method, then:
Dry eye syndrome was induced by causing ocular inflammation via injection of concanavalin A into the lacrimal gland of rabbits (Journal of Ocular Pharmacology & Therapeutics 21(2), 139-148, 2005). Uridine was dissolved to a concentration of […] in a phosphate-buffered saline solution, respectively, and the resulting solutions were used as eye drops. A commercially available 0.1% hyaluronic acid preparation was used as a positive control group, and a phosphate-buffered saline solution was used as a control group. 1% and 5% uridine preparations, the hyaluronic acid preparation and the phosphate-buffered saline solution were respectively dropped into eyes of the dry eye-induced rabbits, and the impression cytology of ocular cells was performed to confirm alleviation of dry eye syndrome.

Test [1] has as its system ocular epithelial cells. Put plainly: Production of glycosaminoglycan in corneal epithelial cells (Biocolor assay kit). Particulars: uridine 0 μM to 50 μM, 48 hours, concentration-dependent, FIG. 5. It is filed as cell-based. Here is the method: Ocular epithelial cells were stimulated for 48 hours by treatment with uridine (0 μM to 50 μM). The cell culture was collected, and an amount of glycosaminoglycan was measured at 550 nm using a Biocolor assay kit.

Test [2] has as its system corneal keratocytes. Put plainly: Production of glycosaminoglycan in corneal keratocytes (Biocolor assay kit). The test is classed as cell-based. The note with it: uridine 0 μM to 50 μM, 48 hours, effect from 1 μM, concentration-dependent, FIG. 2. Here is the method: Corneal keratocytes were stimulated for 48 hours by treatment of the cells with uridine (0 μM to 50 μM). The cell culture was collected, and an amount of glycosaminoglycan was measured at 550 nm using a Biocolor assay kit.

The subject of test [3] is ocular epithelial cells. Put plainly: Production of nitric oxide (NO) in H2O2-stimulated corneal epithelial cells (Griess reagent). It is filed as cell-based. The note with it: 100 μM H2O2, then uridine 0 μM to 100 μM, 48 hours, concentration-dependent, FIG. 6. For orientation: The Griess reaction detects nitrite, a stable product of nitric oxide.
The test system of test [4] is corneal keratocytes. Put plainly: Production of nitric oxide (NO) in H2O2-stimulated corneal keratocytes (Griess reagent). It is filed as cell-based. Particulars: 100 μM H2O2, then uridine 0 μM to 100 μM, 48 hours, effect up to 50 μM, concentration-dependent, FIG. 3.
In test [5] the test system is corneal keratocytes. Put plainly: Proliferation of corneal keratocytes (CCK-8). The test is classed as cell-based. Particulars: uridine 0 μM to 10 μM, 48 hours; effect from 0.1 μM or higher; FIG. 4. The method, then:
Corneal keratocytes were incubated in a 96-well plate and stimulated with uridine (0 μM to 10 μM) for 48 hours. Cell count was carried out at 450 nm using a Cell counting kit-8 (CCK-8).

The test system of test [6] is corneal keratocytes. Put plainly: Production of hyaluronic acid in corneal keratocytes (b-HABP plate assay). The test is classed as cell-based. Particulars: uridine 0 μM to 10 μM, 48 hours; effect up to 5 μM, concentration-dependent; FIG. 1. The method, then: Corneal keratocytes were stimulated for 48 hours by treatment of the cells with uridine (0 μM to 10 μM). 100 μl of the cell culture was collected, and reacted with 100 μl of biotinylated hyaluronic acid binding protein (b-HABP, 50 ng/mL) at room temperature for 1 hour. On the day prior to experiments, 20 μg/mL of HA and a solution of 20 mM Na2CO3 were added to a 96-well plate which was then stored in a refrigerator for 24 hours, and washed with a standard assay buffer (SAB) three times. 1% BSA was added to the 96-well plate which was then reacted at room temperature for 90 min and washed with SAB three times to thereby prepare an HA-coated plate. The above-prepared cell culture was added to the HA-coated plate, and reacted with stirring at room temperature for 1 hour. Thereafter, the cell culture thus reacted was washed with SAB three times, followed by addition of Extra-avidin alkaline phosphatase (1:80000), reaction at room temperature for 30 min, and washing with SAB three times. 1 mg/mL of a disodium p-nitrophenyl solution in 100 mM NaCl and 5 mM MgCl was added to the cell culture which was then reacted for 20 to 60 min. Thereafter, 3N NaOH was added to terminate the reaction, and an amount of hyaluronic acid was measured at 405 nm.

Regarding `O=c1ccn([C@@H]2O[C@H](CO)[C@@H](O)[C@H]2O)c(=O)[nH]1` [uridine], the “tear-secretion test (Schirmer test)” value in the test on dry eye patients (FIG. 8) is on record as “significant difference”. Also, the corneal staining entry with dry eye patients (FIG. 9) is given as “significant difference”. In the test on dry eye-induced rabbits, the “restoration of epithelial cells in the impression cytology of ocular cells” value is recorded as “significant restoration of epithelial cells”. Besides, the production of glycosaminoglycan result with ocular epithelial cells [1] and with corneal keratocytes [2] was “promoted production of glycosaminoglycan” each time. Also, the “production of nitric oxide (NO)” value in the test on ocular epithelial cells [3] and in the test on corneal keratocytes [4] was “inhibited production of nitric oxide (NO)” throughout. Besides, the proliferation of cells result with corneal keratocytes [5] is on record as “promoted proliferation of cells”. In addition, the “production of hyaluronic acid” value in the test on corneal keratocytes [6] is listed as “promoted production of hyaluronic acid”.
